In patent US20100273780A1, “SUBSTITUTED 8-HETEROARYL XANTHINES” (PGXHEALTH, LLC, priority 2003, published 2010):

Target: T1, rat A2B receptors (rA2B) (Rattus norvegicus, UniProt P29276)
T1 construct: expressed in transfected cells; host or cells: HEK-293 cells, stably transfected (G418 selection); membranes
T1 sequence (P29276 1-332): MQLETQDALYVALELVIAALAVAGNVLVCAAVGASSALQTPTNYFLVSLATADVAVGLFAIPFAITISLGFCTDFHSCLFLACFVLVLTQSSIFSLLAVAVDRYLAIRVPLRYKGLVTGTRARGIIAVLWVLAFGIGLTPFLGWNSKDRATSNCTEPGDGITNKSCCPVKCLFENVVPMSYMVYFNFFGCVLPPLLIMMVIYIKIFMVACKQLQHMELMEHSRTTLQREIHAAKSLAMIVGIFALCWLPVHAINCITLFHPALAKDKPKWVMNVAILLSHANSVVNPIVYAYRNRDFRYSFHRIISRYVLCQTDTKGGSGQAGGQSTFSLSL
Assay: Radioligand competition binding (125I-ABOPX) at rat A2B receptors in HEK-293 membranes
Conditions: displacement of specific [125I]ABOPX binding at rat A2B receptors expressed in HEK-293 cells; read-out: RatA2B Ki
Experimental: The plasmid was amplified in competent JM109 cells and plasmid DNA isolated using Wizard Megaprep columns (Promega Corporation, Madison, Wis.).
Transfected HEK cells were grown under 5% CO2/[…] humidified atmosphere at a temperature of 37° C. Colonies were selected by growth of cells in 0.6 mg/mL G418. Transfected cells were maintained in DMEM supplemented with Hams F12 nutrient mixture (1/1), 10% newborn calf serum, 2 mM glutamine and containing 50 IU/mL penicillin, […], and 0.2 mg/mL Geneticin (G418, Boehringer Mannheim). Cells were cultured in 10 cm diameter round plates and subcultured when grown confluent (approximately after 72 hours).
At A2B receptors: Confluent monolayers of HEK-A2B cells were washed with PBS followed by ice cold Buffer A (10 mM HEPES, 10 mM EDTA, pH 7.4) with protease inhibitors (10 μg/mL benzamidine, 100 μM phenylmethanesulfonyl fluoride, and 2 μg/mL of each aprotinin, pepstatin and leupeptin). The cells were homogenized in a Polytron (Brinkmann) for 20 s, centrifuged at 30,000×g, and the pellets washed twice with buffer HE (10 mM HEPES, 1 mM EDTA, pH 7.4 with protease inhibitors). The final pellet was resuspended in buffer HE, supplemented with 10% sucrose and frozen in aliquots at −80° C. For binding assays membranes were thawed and diluted 5-10 fold with HE to a final protein concentration of approximately 1 mg/mL. To determine protein concentrations, membranes, and bovine serum albumin standards were dissolved in 0.2% NaOH/0.01% SDS and protein determined using fluorescamine fluorescence. Stowell, C.
After incubation, 20 minutes at room temperature, 50 μL, of 10 mg/mL Na-metabisulfite in water was added to quench the reaction. The reaction mixture was applied to a C18 HPLC column, eluting with a mixture of methanol and 5 mM phosphate, pH 6.0. After 5 min at 35% methanol, the methanol concentration was ramped to 100% over 15 min.
Radioligand binding experiments were performed in triplicate with 20-25 μg membrane protein in a total volume of 0.1 mL HE buffer supplemented with 1 U/mL adenosine deaminase and 5 mM MgCl2. The incubation time was 3 h at 21° C. Nonspecific binding was measured in the presence of 100 μM NECA. […] Membranes were filtered on Whatman GF/C filters using a Brandel cell harvester (Gaithersburg, Md.) and washed 3 times over 15-20 seconds with ice cold buffer (10 mM Tris, 1 mM MgCl2, pH 7.4). Bmax and KD values were calculated by Marquardt's nonlinear least squares interpolation for single a site binding models. Marquardt, D. M., J. Soc. Indust. Appl. […] Ki values for different compounds were derived from IC50 values as described. Linden, J., J. Cycl. Nucl. […] Data from replicate experiments are tabulated as means±SEM.

## CCCn1c(=O)c2[nH]c(-c3ccc(N(C)C(=O)c4cc(C)on4)nc3)nc2n(CCC)c1=O [Compound 111, 1,3-Dipropyl-8-[6-[N-(5-methylisoxazol-3-yl-3-carbonyl)methylamino]-3-pyridyl)xanthine]
  Ki: < 100 nM

## CCCn1c(=O)c2[nH]c(-c3ccc(N(C)C(=O)c4ccc(C(F)(F)F)nc4)nc3)nc2n(CCC)c1=O [Compound 121, 1,3-dipropyll-8-[6-(N-[6-(trifluoromethyl)nicotinoyl]methylamino)-3-pyridyl]xanthine]
  Ki: < 100 nM

## CCn1c(=O)c2[nH]c(-c3ccc(N(CC4CC4)C(=O)c4cccnc4)nc3)nc2n(CC)c1=O [Compound 144, 1,3-Diethyl-8-[6-[N-nicotinoylcyclopropylmethylamino]-3-pyridyl)xanthine]
  Ki: < 500 nM
